From patent US12083268B2, “Delivery device and formulation” (Ockham Biotech Limited, priority 2016, dated 2024)
Where “and” joins values, the source holds several entries; their conditions need not be identical. Identical values can stand only once.

Key:
[1] = Solubility of dexamethasone in NaCl solution with and without heparin; type: physicochemical
[2] = Physicochemical characterisation of heparin solutions in water
Procedure: Tests for viscosity, surface tension and osmolality were carried out in triplicate. For pH and density single measurements were performed.

[3] = Laser diffraction of aerosol from heparin solutions nebulised with PARI eFlow; type: physicochemical
Procedure: There is a moderate increase from 1.25±0.01 to 1.99±0.02 mPa·s between 6 and 30 mg/mL and a strong increase to 8.9±0.08 mPa·s when the concentration is further increased to 150 mg/mL. The surface tension (nearly equal to that of water) remains constant between 6 and 30 mg/mL and increases only slightly (from 72.41±0.02 to 73.78±0.05 mN/m) between 30 and 150 mg/mL. As expected the osmolality increases with increasing concentration, going from 0.014±0.001 to 0.293±0.001 osmol/kg over the investigated concentration range. […] All formulations show a pH (between 5.97 and 6.50) which would be appropriate for inhalation (the allowed range according to the European Pharmacopoeia is pH 3.0-8.5). The heparin solutions were nebulised using a PARI eFlow® device configured with Head class 40, which typically results in droplet sizes from 4.0-4.9 μm when using dilute aqueous formulations. The properties of the resultant aerosol particles were measured using laser diffraction, and are compared with the results obtained for isotonic saline measured using the same nebuliser configuration in Table 2.

[4] = Particle size distribution of heparin solutions aerosolised with Aeroneb Go (HELOS KR particle sizer); type: physicochemical
Procedure: The particle size distribution of heparin solutions was measured after aerosolisation of the heparin solutions using the Aeroneb® Go nebuliser. Particle size measurements were made using the HELOS KR particle sizer device, INHALER module, and WINDOX 5.0 software from SympatecGmbH (Clausthal-Zellerfeld, Germany). The total volume of solution in the reservoir of the nebuliser was 6 mL: 1.5 mL heparin (Wokhardt, 25,000 IU/mL) with 4.5 mL 0.9% aqueous NaCl (final concentration of heparin=6250 IU/mL or 31.25 mg/mL; final concentration of NaCl=[…]). The viscosity of the solution was 1.7 mPa·s. The nebulisation time was 14 min (reservoir empty); particle size measurements were divided into 1 min intervals. The particle distribution is seen to be bimodal. The X50 is […] (mean±standard deviation), where 50% of the total number of the particles is in particles less than this size. […] Optical concentration (droplets in laser pathway) was used as an indication of nebulisation efficiency; this nebulisation efficiency was determined to be 76.91%±4.25%.
(§1) Aqueous solutions of unfractionated heparin as its sodium salt containing various concentrations of an added inorganic salt were also aerosolised using the Aeroneb® Go. Particle size measurements were made using the HELOS KR particle sizer device, INHALER module, and WINDOX 5.0 software from SympatecGmbH (Clausthal-Zellerfeld, Germany). The heparin sodium salt was obtained from pig intestinal mucosa (Calbiochem, molecular weight 12-15 kDa, 192 U/mg). The particle size distributions are shown in FIGS. 2-7 and the important parameters, quoted as mean values ±standard deviations, are summarised in Table 4 below.
A 40 mg/mL aqueous solution of heparin containing 140 mM NaCl was aerosolised using the Aeroneb® Go nebuliser in the absence and presence of salbutamol (a bronchodilator) and dexamethasone (a corticosteroid). Particle size measurements were made using the HELOS KR particle sizer device, INHALER module, and WINDOX 5.0 software from SympatecGmbH (Clausthal-Zellerfeld, Germany).

[5] = Viscosity of heparin salt solutions (BS/U-tube viscometer); type: physicochemical; settings: 40 mg/mL heparin
Source text: as §1

[6] = HPLC of unfractionated heparin before and after nebulisation with PARI eFlow; type: physicochemical; settings: 0.25 mg/mL (50 U/mL) in water
Procedure: A solution of unfractionated heparin (diluted to 50 U/mL, i.e. 0.25 mg/mL, in ultra high quality water) was analysed by high performance liquid chromatography. HPLC analysis was performed using a […] ion-paring C8 column (Hichrom, Reading, UK), a Rheodyne 7725 syringe loading sample injector fitted with a 20 μL loop (Rheodyne, Cotati, CA, USA), a LKB2150 dual piston pump (LK Bromma, Swedon), a HP 1050CVW detector (Agilent, UK), a HP 3396A integrator (Agilent, UK) and a Rheodyne 25 μL capacity syringe was used to load a 20 μL sample into the injection port. HPLC conditions consisted of an ultraviolet wavelength selected at 232 nm. The flow rate was adjusted to 0.50 mL/min and a pressure of 50 bar was recorded. A mobile phase composed of 30% acetonitrile and 70% aqueous solution comprising 15 mM tetrabutylammonium hydroxide and 50 mM ammonium acetate in HPLC grade water, adjusted to pH 7 with acetic acid, was used. The resulting HPLC trace is shown as the left-hand trace in FIG. 11.
An identical sample of unfractionated heparin was nebulised using the PARI eFlow® device, and recollected. […] The resulting HPLC trace is shown as the right-hand trace in FIG. 11.

[7] = Anti-coagulant activity after nebulisation from PARI eFlow
Source text: In an additional experiment, it was also observed that the anti-coagulant activity of the unfractionated heparin was retained after nebulisation from the PARI eFlow® device.

[8] = Viscosity of heparin salt solutions (BS/U-tube viscometer); type: physicochemical
[9] = in water; reference [7]; cited from earlier work
[10] = 31.25 mg/mL heparin, 154 mM NaCl, Aeroneb Go
[11] = 40 mg/mL heparin, 112 mM NaCl, 56 mM MgCl2, Aeroneb Go
[12] = 40 mg/mL heparin, 140 mM NaCl, Aeroneb Go
[13] = 40 mg/mL heparin, 168 mM NaCl, Aeroneb Go
[14] = 40 mg/mL heparin, 196 mM NaCl, Aeroneb Go
[15] = 40 mg/mL heparin, 210 mM NaCl, Aeroneb Go
[16] = 40 mg/mL heparin, 224 mM NaCl, Aeroneb Go
[17] = 40 mg/mL unfractionated heparin, 140 mM NaCl, 0.75 mg/mL dexamethasone, Aeroneb Go
[18] = 40 mg/mL unfractionated heparin, 140 mM NaCl, 0.83 mg/mL salbutamol, Aeroneb Go
[19] = 40 mg/mL unfractionated heparin, 140 mM NaCl, no second agent, Aeroneb Go

Which results are given for `C[C@@H]1C[C@H]2[C@@H]3CCC4=CC(=O)C=C[C@]4(C)[C@@]3(F)[C@@H](O)C[C@]2(C)[C@@]1(O)C(=O)CO` [dexamethasone]?
solubility (in words) ([1]; 0.25 mg/mL in 140 mM NaCl alone): not soluble; solubility (in words) ([1]; in 140 mM NaCl containing 40 mg/mL heparin): soluble

Which Viscosity ([2]; 6 mg/mL heparin in water) does the source give for heparin here?
The Viscosity was 1.25±0.01 mPa · s and 1.25 mPa · s.

What about the density ([2]; 6 mg/mL heparin in water) of the same compound?
The density was 1.00 g/mL.

What about the osmolality ([2]; 6 mg/mL heparin in water) of the same compound?
Its osmolality is 0.014±0.001 osmol/kg and 0.014 osmol/kg.

And the pH ([2]; 6 mg/mL heparin in water)?
The pH was 6.50.

And the surface tension ([2]; 6 mg/mL heparin in water)?
The surface tension was 72.58 mN/m.

What about the Viscosity ([2]; 30 mg/mL heparin in water) of the same compound?
The Viscosity was 1.99±0.02 mPa · s and 1.99 mPa · s.

And the density ([2]; 30 mg/mL heparin in water)?
Its density is 1.01 g/mL.

And the osmolality ([2]; 30 mg/mL heparin in water)?
Its osmolality is 0.056 osmol/kg.

What about the pH ([2]; 30 mg/mL heparin in water) of the same compound?
Its pH is 6.01.

And the surface tension ([2]; 30 mg/mL heparin in water)?
The surface tension was 72.41±0.02 mN/m and 72.41 mN/m.

What about the Viscosity ([2]; 150 mg/mL heparin in water) of the same compound?
The Viscosity was 8.9±0.08 mPa · s and 8.90 mPa · s.

And the density ([2]; 150 mg/mL heparin in water)?
The density was 1.07 g/mL.

What about the osmolality ([2]; 150 mg/mL heparin in water) of the same compound?
The osmolality was 0.293±0.001 osmol/kg and 0.293 osmol/kg.

And the pH ([2]; 150 mg/mL heparin in water)?
Its pH is 5.97.

And the surface tension ([2]; 150 mg/mL heparin in water)?
The surface tension was 73.78±0.05 mN/m and 73.78 mN/m.

What about the “MMD (median mass diameter)” value ([3]; 6 mg/mL heparin) of the same compound?
The value was 4.6 μm.

What about the “RF (respirable fraction) [% <5 μm]” value ([3]; 6 mg/mL heparin) of the same compound?
Its value is 57.9%.

What about the “MMD (median mass diameter)” value ([3]; 30 mg/mL heparin) of the same compound?
The value was 4.4 μm.

What about the “RF (respirable fraction) [% <5 μm]” value ([3]; 30 mg/mL heparin) of the same compound?
Its value is 63.0%.

And the X50 [4, 10]?
The X50 was 3.45 ± 0.025 µm.

And the X90 [4, 10]?
The X90 was “less than 8.5 m”.

What about the “particles within the respirable range of 1-5 μm” value [4, 10] of the same compound?
Its value is 57.87%.

And the “Particles in 1-5 μm range” value [4, 11]?
The value was 58.46% and 58.46 ± 0.30%.

What about the “VMD (volume median diameter)” value [4, 11] of the same compound?
The value was 4.31 ± 0.05 μm.

What about the X50 [4, 11] of the same compound?
The X50 was 3.49 ± 0.056 μm.

What about the “Particles in 1-5 μm range” value [4, 12] of the same compound?
The value was 50.76% and 50.76 ± 0.63%.

And the “VMD (volume median diameter)” value [4, 12]?
The value was 4.80 ± 0.06 μm.

And the X50 [4, 12]?
The X50 was 4.095 ± 0.044 μm.

And the X50 ([4]; 40 mg/mL heparin, 140 mM NaCl, no second agent, Aeroneb Go (as restated in conclusions))?
Its X50 is 3.98±0.03 μm.

What about the VMD ([4]; 40 mg/mL heparin, 140 mM NaCl, with salbutamol, Aeroneb Go (as restated in conclusions)) of the same compound?
The VMD was 4.47 μm.

And the “Particles in 1-5 μm range” value [4, 13]?
Its value is 56.65% and 56.65 ± 0.47%.

And the “VMD (volume median diameter)” value [4, 13]?
Its value is 4.41 ± 0.025 μm.

What about the X50 [4, 13] of the same compound?
Its X50 is 3.543 ± 0.049 μm.

And the “Particles in 1-5 μm range” value [4, 14]?
Its value is 48.62% and 48.62 ± 0.38%.

And the “VMD (volume median diameter)” value [4, 14]?
Its value is 4.68 ± 0.02 μm.

And the X50 [4, 14]?
Its X50 is 3.978 ± 0.022 μm.

What about the “Particles in 1-5 μm range” value [4, 15] of the same compound?
The value was 55% and 55 ± 0.24%.

And the “VMD (volume median diameter)” value [4, 15]?
Its value is 4.55 ± 0.023 μm.

What about the X50 [4, 15] of the same compound?
Its X50 is 3.812 ± 0.027 μm.

What about the “Particles in 1-5 μm range” value [4, 16] of the same compound?
Its value is 57.02% and 57.02 ± 0.28%.

What about the “VMD (volume median diameter)” value [4, 16] of the same compound?
Its value is 4.37 ± 0.032 μm.

And the X50 [4, 16]?
The X50 was 3.51 ± 0.03 μm.

What about the VMD [4, 17] of the same compound?
The VMD was 4.61 ± 0.058 µm.

What about the X50 [4, 17] of the same compound?
Its X50 is 3.906±0.048 μm.

And the “particles within the respirable range of 1-5 m” value [4, 17]?
The value was 49.954%.

And the VMD [4, 18]?
The VMD was 4.47 ± 0.054 µm.

And the X50 [4, 18]?
The X50 was 3.546±0.045 μm.

And the “particles within the respirable range of 1-5 m” value [4, 18]?
The value was 55.154%.

What about the VMD [4, 19] of the same compound?
Its VMD is 4.64±0.033 μm.

What about the X50 [4, 19] of the same compound?
Its X50 is 3.98 ± 0.03 µm.

And the “particles within the respirable range of 1-5 μm” value [4, 19]?
Its value is 48.21%.

What about the Viscosity ([5]; 0 mM NaCl, 0 mM MgCl2) of the same compound?
The Viscosity was 2.5 mPa · s.

And the Viscosity ([5]; 112 mM NaCl, 56 mM MgCl2)?
The Viscosity was 2 mPa · s and 2.0 mPa · s.

And the Viscosity ([5]; 140 mM NaCl)?
The Viscosity was 2.22 mPa · s.

And the Viscosity ([5]; 168 mM NaCl)?
The Viscosity was 2.25 mPa · s.

What about the Viscosity ([5]; 196 mM NaCl) of the same compound?
Its Viscosity is 2.2 mPa · s.

What about the Viscosity ([5]; 210 mM NaCl) of the same compound?
Its Viscosity is 2.2 mPa · s.

And the Viscosity ([5]; 224 mM NaCl)?
The Viscosity was 2 mPa · s and 2.0 mPa · s.

And the “structural integrity / degradation on nebulisation (HPLC traces before vs after)” value [6]?
The value was “does not lead to degradation”.

What about the “anti-coagulant activity after nebulisation” value [7] of the same compound?
The value was “retained”.

What about the Viscosity ([8]; 31.25 mg/mL (6250 IU/mL) heparin, 154 mM NaCl) of the same compound?
Its Viscosity is 1.7 mPa·s.

What about the Viscosity ([8]; 40 mg/mL unfractionated heparin, 140 mM NaCl (Example 3)) of the same compound?
The Viscosity was 2.2 mPa·s.

And the intrinsic viscosity [9]?
Its intrinsic viscosity is 80.6 mL/g.
